Test results taken from publication PMC8146397 (Nanomaterials, 2021).
Several values for one entry are separate records, joined by “and”; a condition that tells them apart may be missing. Equal entries are not always repeated.

Assays:
[1] = In vitro dissolution / CIP release at pH 5.0 for 72 h; assay type: physicochemical
Salmonella typhi strains = assay: Antibacterial activity, CFU count / sterilization rate; assay type: cell-based; conditions: Salmonella typhi 3 × 10^4 cells/ml, 3 h at 37 °C, CFU after 18 h
Procedure: After incubation, solidified LB agar plat was impregnated with 100 μL of the bacterial suspension.

[2] = In vivo pharmacokinetics after oral delivery (HPLC of plasma); conditions: mice
Procedure: Healthy mice weighing 30 g were kept in the primate facility with free access to food and water a day before the commencement of the experiment. The mice were divided into two groups (n = 5). […] Blood plasma was stored at −20 °C until further use.

[3] = release kinetic model Ct = C0 + k0t
[4] = release kinetic model Mi/M∞ = Kth + b
[5] = release kinetic model logQ0 + Kit/2.3

O=C(O)c1cn(C2CC2)c2cc(N3CCNCC3)c(F)cc2c1=O [CIP, Ciprofloxacin]
Zero Order K^0 [1, 3]: 32.90 | Zero Order R^2 [1, 3]: 0.5787 ± 2.57 | Korsmeyer-Peppas N (release exponent n) [1, 4]: 0.502 | Korsmeyer-Peppas R2 [1, 4]: 0.9370 ± 4.85 | Higuchi KH ([1]; release kinetic model Q = KH√t): 53.70 | Higuchi R2 ([1]; release kinetic model Q = KH√t): 0.9360 ± 3.57 | First Order K1 [1, 5]: 0.877 | First Order R^2 [1, 5]: 0.9534 ± 1.57 | Sterilizing rate (Salmonella typhi strains): 9 ± 3.25% | AUMC 0-inf [2]: 900.65 μg/mL × h^2 and 900.65 ± 1.57 μg/mL × h^2
